The target of this data set is human serum albumin (HSA) (Homo sapiens, UniProt P02768). The data set is described as follows: Albumin binding affinity, competition scintillation proximity assay. The note with it: for EC50 at 20 h: human, pH 7.4.

Structures are written as SMILES. Starred links: 1 amine or outer side, 2 acyl side, 3 side chain; linkers in the order of their positions; H or OH if unused. Residues, ends and D or L forms follow the SMILES beside them. Groups on a side chain read outwards from the residue. *: point of attachment. X3 = O=C(O)CCCCCCCCCCCCCCCCCCC(=O)NC[C@H]1CC[C@H](C(=O)N[C@@H](CCC(=O)NCCOCCOCC(=O)NCCOCCOCC(=O)N[C@@H](CCCCN*)C(=O)O)C(=O)O)CC1; X2 = O=C(O)CCCCCCCCCCCCCCCCCCC(=O)NCC1CCC(C(=O)*)CC1; C20 diacid = O=C(O)CCCCCCCCCCCCCCCCCCC(=O)*; γGlu = O=C(O)[C@H](CCC(=O)[*:2])N[*:1]; Desaminohistidyl = O=C(CCc1c[nH]cn1)*; AEEA = NCCOCCOCC(=O)O; Inp = O=C(O)C1CCNCC1

Sequence of human serum albumin (HSA) (P02768 25-609): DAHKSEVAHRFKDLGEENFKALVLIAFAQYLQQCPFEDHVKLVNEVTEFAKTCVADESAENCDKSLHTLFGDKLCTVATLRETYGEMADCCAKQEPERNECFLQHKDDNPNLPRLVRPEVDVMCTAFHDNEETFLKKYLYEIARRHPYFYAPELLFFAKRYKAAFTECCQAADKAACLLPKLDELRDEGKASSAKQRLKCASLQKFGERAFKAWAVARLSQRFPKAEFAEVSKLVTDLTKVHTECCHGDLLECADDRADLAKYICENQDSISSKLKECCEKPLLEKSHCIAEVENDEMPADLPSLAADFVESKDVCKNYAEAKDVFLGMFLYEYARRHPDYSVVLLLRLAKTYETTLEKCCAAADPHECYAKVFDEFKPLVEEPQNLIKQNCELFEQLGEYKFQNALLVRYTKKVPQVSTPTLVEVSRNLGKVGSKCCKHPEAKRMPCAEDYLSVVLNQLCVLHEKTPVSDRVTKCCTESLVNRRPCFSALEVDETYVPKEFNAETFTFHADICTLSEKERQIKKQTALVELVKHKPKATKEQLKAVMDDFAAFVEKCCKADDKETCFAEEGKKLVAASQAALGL
Experimental: Streptavidin-SPA beads (GE Healthcare RPNQ0009) were incubated with biotinylated HSA for 5 hours. The beads were washed with buffer to remove unbound HSA. […] After 20 hours of gentle rocking at room temperature the plates were centrifuged and counted on a TopCounter.

In turn, `CC[C@H](C)[C@H](NC(=O)[C@H](Cc1ccccc1)NC(=O)[C@H](CCC(=O)O)NC(=O)[C@H](CCCNC(=N)N)NC(=O)[C@H](C)NC(=O)[C@H](C)NC(=O)[C@H](CCC(N)=O)NC(=O)[C@H](CCC(=O)O)NC(=O)[C@H](CCC(=O)O)NC(=O)[C@H](CC(C)C)NC(=O)[C@H](Cc1ccc(O)cc1)NC(=O)[C@H](CO)NC(=O)[C@H](CO)NC(=O)[C@@H](NC(=O)[C@H](CC(=O)O)NC(=O)[C@H](CO)NC(=O)[C@@H](NC(=O)[C@H](Cc1ccccc1)NC(=O)[C@@H](NC(=O)CNC(=O)[C@H](CCC(=O)O)NC(=O)[C@H](C)NC(=O)CCc1c[nH]cn1)[C@@H](C)O)[C@@H](C)O)C(C)C)C(=O)N[C@@H](C)C(=O)N[C@@H](Cc1c[nH]c2ccccc12)C(=O)N[C@@H](CC(C)C)C(=O)N[C@H](C(=O)N[C@@H](CCCNC(=N)N)C(=O)NCC(=O)N[C@@H](CCCNC(=N)N)C(=O)NCCCC[C@H](NC(=O)COCCOCCNC(=O)COCCOCCNC(=O)CC[C@H](NC(=O)[C@H]1CC[C@H](CNC(=O)CCCCCCCCCCCCCCCCCCC(=O)O)CC1)C(=O)O)C(=O)O)C(C)C` [Example 53, N-alpha37-[2-(2-{2-[2-(2-{2-[(S)-4-Carboxy-4-({trans-4-[(19-carboxynonadecanoylamino)methyl]cyclohexanecarbonyl}amino)butyrylamino]ethoxy}ethoxy)acetylamino]ethoxy}ethoxy)acetyl][DesaminoHis7,Glu22,Arg26,Arg34,epsilon-Lys37]GLP-1-(7-37)] (Desaminohistidyl-AEGTFTSDVSSYLEEQAAREFIAWLVRGR-X3) yielded an EC50 of 1 to 100 nM.
`CC[C@H](C)[C@H](NC(=O)[C@H](Cc1ccccc1)NC(=O)[C@H](CCC(=O)O)NC(=O)[C@H](CCCNC(=N)N)NC(=O)[C@H](C)NC(=O)[C@H](C)NC(=O)[C@H](CCC(N)=O)NC(=O)[C@H](CCC(=O)O)NC(=O)[C@H](CCC(=O)O)NC(=O)[C@H](CC(C)C)NC(=O)[C@H](Cc1ccc(O)cc1)NC(=O)[C@H](CO)NC(=O)[C@H](CO)NC(=O)[C@@H](NC(=O)[C@H](CC(=O)O)NC(=O)[C@H](CO)NC(=O)[C@@H](NC(=O)[C@H](Cc1ccccc1)NC(=O)[C@@H](NC(=O)CNC(=O)[C@H](CCC(=O)O)NC(=O)[C@H](C)NC(=O)Cc1c[nH]cn1)[C@@H](C)O)[C@@H](C)O)C(C)C)C(=O)N[C@@H](C)C(=O)N[C@@H](Cc1c[nH]c2ccccc12)C(=O)N[C@@H](CC(C)C)C(=O)N[C@H](C(=O)N[C@@H](CCCNC(=N)N)C(=O)NCC(=O)N[C@@H](CCCNC(=N)N)C(=O)N[C@@H](CCCCNC(=O)COCCOCCNC(=O)COCCOCCNC(=O)CC[C@H](NC(=O)[C@H]1CC[C@H](CNC(=O)CCCCCCCCCCCCCCCCCCC(=O)O)CC1)C(=O)O)C(=O)O)C(C)C` [Example 54, N-alpha8-[2-(4-imidazolyl)acetyl] N-epsilon37-[2-(2-{2-[2-(2-{2-[(S)-4-Carboxy-4-({trans-4-[(19-carboxynonadecanoylamino)methyl]cyclohexanecarbonyl}amino)butyrylamino]ethoxy}ethoxy)acetylamino]ethoxy}ethoxy)acetyl][Glu22,Arg26,Arg34,Lys37]GLP-1-(8-37)] had an EC50 at 20 h of 150 to 300 nM.
Consider `CC[C@H](C)[C@H](NC(=O)[C@H](Cc1ccccc1)NC(=O)[C@H](CCC(=O)O)NC(=O)[C@H](CCCNC(=N)N)NC(=O)[C@H](C)NC(=O)[C@H](C)NC(=O)[C@H](CCC(N)=O)NC(=O)[C@H](CCC(=O)O)NC(=O)[C@H](CCC(=O)O)NC(=O)[C@H](CC(C)C)NC(=O)[C@H](Cc1ccc(O)cc1)NC(=O)[C@H](CO)NC(=O)[C@H](CO)NC(=O)[C@@H](NC(=O)[C@H](CC(=O)O)NC(=O)[C@H](CO)NC(=O)[C@@H](NC(=O)[C@H](Cc1ccccc1)NC(=O)[C@@H](NC(=O)CNC(=O)[C@H](CCC(=O)O)NC(=O)[C@H](C)NC(=O)CCc1c[nH]cn1)[C@@H](C)O)[C@@H](C)O)C(C)C)C(=O)N[C@@H](C)C(=O)N[C@@H](Cc1c[nH]c2ccccc12)C(=O)N[C@@H](CC(C)C)C(=O)N[C@H](C(=O)N[C@@H](CCCNC(=N)N)C(=O)NCC(=O)N[C@@H](CCCNC(=N)N)C(=O)NCC(=O)N[C@@H](CCCCNC(=O)COCCOCCNC(=O)CC[C@H](NC(=O)C1CCN(C(=O)CCCCCCCCCCCCCCCCCCC(=O)O)CC1)C(=O)O)C(=O)O)C(C)C` [Example 55, [DesaminoHis7,Glu22,Arg26,34]-GLP-1 (7-37)-Lys-(2-{2-[2-((S)-4-carboxy-4-{[1-(19-carboxynonadecanoyl)piperidine-4-carbonyl]amino}butyrylamino)ethoxy]ethoxy}acetyl) peptide] (Desaminohistidyl-AEGTFTSDVSSYLEEQAAREFIAWLVRGRGK([AEEA-γGlu-Inp-C20 diacid])-OH), for which the 50% effective concentration (EC50) at 20 h (biotinylated human serum albumin on streptavidin-SPA beads) is 150 to 300 nM.
Turning to `CC[C@H](C)[C@H](NC(=O)[C@H](Cc1ccccc1)NC(=O)[C@H](CCC(=O)O)NC(=O)[C@H](CCCNC(=N)N)NC(=O)[C@H](C)NC(=O)[C@H](C)NC(=O)[C@H](CCC(N)=O)NC(=O)[C@H](CCC(=O)O)NC(=O)[C@H](CCC(=O)O)NC(=O)[C@H](CC(C)C)NC(=O)[C@H](Cc1ccc(O)cc1)NC(=O)[C@H](CO)NC(=O)[C@H](CO)NC(=O)[C@@H](NC(=O)[C@H](CC(=O)O)NC(=O)[C@H](CO)NC(=O)[C@@H](NC(=O)[C@H](Cc1ccccc1)NC(=O)[C@@H](NC(=O)CNC(=O)[C@H](CCC(=O)O)NC(=O)[C@H](C)NC(=O)CCc1c[nH]cn1)[C@@H](C)O)[C@@H](C)O)C(C)C)C(=O)N[C@@H](C)C(=O)N[C@@H](Cc1c[nH]c2ccccc12)C(=O)N[C@@H](CC(C)C)C(=O)N[C@H](C(=O)N[C@@H](CCCNC(=N)N)C(=O)NCC(=O)N[C@@H](CCCNC(=N)N)C(=O)NCC(=O)N[C@@H](CCCCNC(=O)COCCOCCNC(=O)COCCOCCNC(=O)CC[C@H](NC(=O)C1CCC(CNC(=O)CCCCCCCCCCCCCCCCCCC(=O)O)CC1)C(=O)O)C(=O)O)C(C)C` (stereo partly shown) [Example 56, [DesaminoHis7,Glu22,Arg26,34]-GLP-1 (7-37)-Lys-[2-(2-{2-[2-(2-{2-[4-Carboxy-4-({4-[(19-carboxynonadecanoylamino)methyl]cyclohexanecarbonyl}amino)butyrylamino]ethoxy}ethoxy)acetylamino]ethoxy}ethoxy)acetyl] peptide] (Desaminohistidyl-AEGTFTSDVSSYLEEQAAREFIAWLVRGRGK([AEEA-AEEA-γGlu-X2])-OH), the EC50 was in the range of 150 to 300 nM.

In general, EC50 refers to the concentration that produces a half-maximal response. High values mean a less potent agent, low ones a more potent agent.

Source of the values: patent publication US9067977B2, “Peptides derivatized with A-B-C-D- and their therapeutical use” (Novo Nordisk A/S, priority 2007, dated 2015).
